These results are taken from US12559506B2, “Indazole based compounds and associated methods of use” (Arvinas Operations, Inc., priority 2021, dated 2026).

As usually defined, the DC50 is the concentration giving 50% degradation. In general, Dmax refers to the greatest extent of degradation seen.

Where two headings read alike, the source gives them in different places.

Common to all, as to format: cell-based
One experiment has as its target T1, G2019S LRRK2 (Homo sapiens, UniProt Q5S007, G2019S).
T1 construct: expressed in transfected cells; host or cells: HEK293 (ATCC CRL-1573), transient transfection, mammalian expression vector with ubiquitin promoter
Briefly: LRRK2 degradation assay, HiBit-tagged G2019S LRRK2 expressed from plasmid in HEK293 cells (Nano-Glo Dual-Luciferase). The conditions noted are these: 24 hours. An outline of the steps:
(§1)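 Degradation read as Nano-Glo HiBiT signal over firefly luciferase (cell number/viability) after 24 h compound exposure of transiently transfected HEK293 expressing C-terminally HiBiT-tagged wildtype or G2019S LRRK2. Data as % DMSO; DC50/Dmax fitted per plate, triplicate plates repeated twice.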
On the technique in general: With HiBiT, luminescence reflects the tagged protein that the partner subunit can reach.

The next experiment concerns the target T2, wildtype LRRK2 (Homo sapiens, UniProt Q5S007).
T2 construct: expressed in transfected cells; host or cells: HEK293 (ATCC CRL-1573), transient transfection, mammalian expression vector with ubiquitin promoter
Briefly: LRRK2 degradation assay, HiBit-tagged wildtype LRRK2 expressed from plasmid in HEK293 cells (Nano-Glo Dual-Luciferase). The conditions noted are these: 24 hours; for Dmax: read-out: **WT Dmax (%); for DC50: read-out: *WT DC50. In outline:
as §1

For experiment [1], the target named is T3, LRRK2 (endogenous, HiBit tagged) (Homo sapiens, UniProt Q5S007).
T3 construct: endogenous in cells; host or cells: HEK293 cells with HiBit knock-in at the endogenous LRRK2 locus, stably expressing firefly luciferase
T3 sequence (Q5S007 whole entry): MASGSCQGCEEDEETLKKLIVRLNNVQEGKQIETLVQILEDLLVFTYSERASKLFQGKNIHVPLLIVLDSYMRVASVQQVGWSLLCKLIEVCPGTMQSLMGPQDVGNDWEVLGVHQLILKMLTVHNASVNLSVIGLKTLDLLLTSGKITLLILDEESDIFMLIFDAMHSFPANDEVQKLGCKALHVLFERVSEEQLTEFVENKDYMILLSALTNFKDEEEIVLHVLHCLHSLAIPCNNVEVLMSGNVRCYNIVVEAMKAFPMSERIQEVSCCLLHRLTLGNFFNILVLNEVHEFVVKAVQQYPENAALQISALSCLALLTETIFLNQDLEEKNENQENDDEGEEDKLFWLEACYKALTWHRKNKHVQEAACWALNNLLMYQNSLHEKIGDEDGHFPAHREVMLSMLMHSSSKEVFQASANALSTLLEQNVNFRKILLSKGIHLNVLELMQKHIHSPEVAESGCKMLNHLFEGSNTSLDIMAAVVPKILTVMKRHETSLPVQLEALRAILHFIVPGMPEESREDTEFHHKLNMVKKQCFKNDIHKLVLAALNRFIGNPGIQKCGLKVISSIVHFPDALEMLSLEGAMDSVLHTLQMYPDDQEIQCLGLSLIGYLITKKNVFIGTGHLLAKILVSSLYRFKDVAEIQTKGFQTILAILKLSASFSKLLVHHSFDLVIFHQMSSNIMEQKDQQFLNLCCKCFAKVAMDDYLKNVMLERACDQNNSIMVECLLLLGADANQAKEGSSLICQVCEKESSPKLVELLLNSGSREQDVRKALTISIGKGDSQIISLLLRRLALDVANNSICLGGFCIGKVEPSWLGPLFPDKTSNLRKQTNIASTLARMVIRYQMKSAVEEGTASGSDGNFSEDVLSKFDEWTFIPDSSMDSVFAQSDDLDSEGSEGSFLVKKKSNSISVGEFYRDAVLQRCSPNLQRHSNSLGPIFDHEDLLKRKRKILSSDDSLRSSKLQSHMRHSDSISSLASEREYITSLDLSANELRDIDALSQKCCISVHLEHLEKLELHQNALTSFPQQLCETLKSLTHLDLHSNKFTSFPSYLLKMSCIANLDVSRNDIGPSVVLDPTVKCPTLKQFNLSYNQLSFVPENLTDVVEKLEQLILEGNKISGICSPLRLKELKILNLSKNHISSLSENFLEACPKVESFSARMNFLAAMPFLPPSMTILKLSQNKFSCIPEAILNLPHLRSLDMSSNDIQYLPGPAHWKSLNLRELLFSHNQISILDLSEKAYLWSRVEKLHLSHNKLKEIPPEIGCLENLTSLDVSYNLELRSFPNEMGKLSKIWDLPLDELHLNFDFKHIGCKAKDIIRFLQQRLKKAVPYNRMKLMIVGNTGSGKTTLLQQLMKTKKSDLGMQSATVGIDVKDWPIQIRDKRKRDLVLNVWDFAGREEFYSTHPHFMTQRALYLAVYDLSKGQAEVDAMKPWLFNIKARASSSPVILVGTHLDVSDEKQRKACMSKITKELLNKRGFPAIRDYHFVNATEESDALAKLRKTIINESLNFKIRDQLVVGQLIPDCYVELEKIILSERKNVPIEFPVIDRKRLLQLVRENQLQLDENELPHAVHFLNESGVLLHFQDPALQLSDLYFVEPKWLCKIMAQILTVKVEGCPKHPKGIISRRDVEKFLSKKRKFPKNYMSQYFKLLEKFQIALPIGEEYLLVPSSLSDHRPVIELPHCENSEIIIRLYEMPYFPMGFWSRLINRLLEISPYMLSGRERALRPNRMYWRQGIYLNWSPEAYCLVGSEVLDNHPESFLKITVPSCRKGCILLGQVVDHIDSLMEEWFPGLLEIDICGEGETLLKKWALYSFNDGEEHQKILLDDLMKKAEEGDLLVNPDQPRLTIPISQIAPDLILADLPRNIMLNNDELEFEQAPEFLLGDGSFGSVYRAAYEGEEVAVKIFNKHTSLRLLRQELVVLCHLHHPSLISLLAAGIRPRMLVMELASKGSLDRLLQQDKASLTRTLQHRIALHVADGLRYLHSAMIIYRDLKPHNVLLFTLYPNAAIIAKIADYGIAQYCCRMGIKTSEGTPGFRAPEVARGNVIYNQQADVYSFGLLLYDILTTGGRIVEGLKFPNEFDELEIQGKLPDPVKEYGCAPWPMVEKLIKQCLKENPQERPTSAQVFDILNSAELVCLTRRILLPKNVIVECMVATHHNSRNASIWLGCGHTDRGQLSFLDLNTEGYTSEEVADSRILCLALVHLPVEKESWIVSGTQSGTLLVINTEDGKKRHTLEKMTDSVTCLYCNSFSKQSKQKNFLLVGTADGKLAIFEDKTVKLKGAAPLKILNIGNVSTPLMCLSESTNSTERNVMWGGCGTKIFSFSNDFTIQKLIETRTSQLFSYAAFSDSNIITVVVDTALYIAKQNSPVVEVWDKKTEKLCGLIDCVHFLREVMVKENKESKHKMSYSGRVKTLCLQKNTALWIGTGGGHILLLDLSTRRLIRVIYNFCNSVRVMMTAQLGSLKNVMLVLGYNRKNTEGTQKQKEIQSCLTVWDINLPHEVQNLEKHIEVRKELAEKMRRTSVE
Put plainly: Endogenous LRRK2 degradation assay, endogenous gene C-terminally HiBit-tagged in HEK293 cells (Nano-Glo Dual Luciferase). The conditions noted are these: 24 hours; for Dmax: read-out: **Endogenous WT Dmax (%); for DC50: read-out: *Endogenous WT DC50. In outline: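 LRRK2-HiBit quantified via Nano-Glo Dual Luciferase in HEK293 knock-in cells co-expressing firefly luciferase, after 24 h exposure to compound (1 μM final top, 1:3, 11 points). Values normalised to DMSO median per plate and curve-fitted; Alamar Blue viability run alongside.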

Where [2] appears, read: HiBit-tagged G2019S LRRK2 in HEK293 cells.
Setting [3] is: HiBit-tagged wildtype LRRK2 in HEK293 cells.
Where [4] appears, read: endogenous HiBit-tagged LRRK2 in HEK293 cells.
Where [5] appears, read: HiBit-tagged G2019S LRRK2, HEK293 cells.
[6] abbreviates: HiBit-tagged wildtype LRRK2, HEK293 cells.
Where [7] appears, read: endogenous HiBit-tagged LRRK2, HEK293 cells.

T1 sequence (Q5S007 whole entry G2019S): as the sequence (Q5S007 whole entry) above, with G2019S counted along it
T2 sequence (Q5S007 whole entry): as the sequence (Q5S007 whole entry) above

`C[C@H]1CN(c2cc(-c3[nH]nc4ccc(OC5(C)CC5)cc34)ncn2)CCN1CC1CCN(CC2CCN(c3cccc4c3C(=O)N(C3CCC(=O)NC3=O)C4=O)CC2)CC1` (stereo partly drawn) [Compound 137, 2-(2,6-dioxo-3-piperidyl)-4-[4-[[4-[[(2S)-2-methyl-4-[6-[5-(1-methylcyclopropoxy)-2H-indazol-3-yl]pyrimidin-4-yl]piperazin-1-yl]methyl]-1-piperidyl]methyl]-1-piperidyl]isoindoline-1,3-dione]: the results for the DC50 (at G2019S LRRK2 (setting [2]); on wildtype LRRK2 (setting [3]); in experiment [1] (setting [4])) were less than 10 nM, less than 10 nM and 10 to 50 nM, respectively. The Dmax (at G2019S LRRK2 (setting [2]); at wildtype LRRK2 (setting [3]); in experiment [1] (setting [4])) was not below 70% throughout.
Take `CC1(Oc2ccc3[nH]nc(-c4cc(N5CCN(C[C@@H]6CC(=O)N(CC7CCN(c8ccc9c(c8)C(=O)N(C8CCC(=O)NC8=O)C9=O)CC7)C6)CC5)ncn4)c3c2)CC1` (single isomer, unassigned) [Compound 121]: the DC50 (at G2019S LRRK2 (setting [2]); on wildtype LRRK2 (setting [3]); in experiment [1] (setting [4])) was less than 10 nM throughout. In addition, the Dmax is 50 to 70% at G2019S LRRK2 (setting [2]), 50 to 70% on wildtype LRRK2 (setting [3]) and not below 70% in experiment [1] (setting [4]).
Regarding `CC1(Oc2ccc3n[nH]c(-c4cc(N5CC(F)(CN6CCN(CC7CCN(c8ccc9c(c8)C(=O)N(C8CCC(=O)NC8=O)C9=O)CC7)CC6)C5)ncn4)c3c2)CC1` (stereo not drawn) [Compound 131, 2-(2,6-dioxo-3-piperidyl)-5-[4-[[4-[[3-fluoro-1-[6-[5-(1-methylcyclopropoxy)-2H-indazol-3-yl]pyrimidin-4-yl]azetidin-3-yl]methyl]piperazin-1-yl]methyl]-1-piperidyl]isoindoline-1,3-dione], the DC50 (on G2019S LRRK2 (setting [2]); at wildtype LRRK2 (setting [3]); in experiment [1] (setting [4])) was less than 10 nM throughout. Besides, the Dmax (at G2019S LRRK2 (setting [2]); on wildtype LRRK2 (setting [3]); in experiment [1] (setting [4])) was not below 70% each time.
`C[C@H]1CN(c2cc(-c3n[nH]c4ccc(OC5(C)CC5)cc34)ncn2)CCN1CC1(F)CCN(CC2CCN(c3ccc4c(c3)C(=O)N(C3CCC(=O)NC3=O)C4=O)CC2)CC1` (stereo partly drawn) [Compound 69, 2-(2,6-dioxo-3-piperidyl)-5-[4-[[4-fluoro-4-[[(2S)-2-methyl-4-[6-[5-(1-methylcyclopropoxy)-1H-indazol-3-yl]pyrimidin-4-yl]piperazin-1-yl]methyl]-1-piperidyl]methyl]-1-piperidyl]isoindoline-1,3-dione]: the DC50 (at G2019S LRRK2 (setting [2]); on wildtype LRRK2 (setting [3]); in experiment [1] (setting [4])) was less than 10 nM throughout. For the same molecule, the Dmax on G2019S LRRK2 (setting [2]) is less than 50%; at wildtype LRRK2 (setting [3]) it was less than 50%; in experiment [1] (setting [4]), 50 to 70%.
For the molecule `CC1(Oc2ccc3n[nH]c(-c4cc(N5CCC(CN6CCN(CC7CCN(c8ccc9c(c8)C(=O)N(C8CCC(=O)NC8=O)C9=O)CC7)CC6)CC5)ncn4)c3c2)CC1` (stereo not drawn) [Compound 68, 2-(2,6-dioxo-3-piperidyl)-5-[4-[[4-[[1-[6-[5-(1-methylcyclopropoxy)-2H-indazol-3-yl]pyrimidin-4-yl]-4-piperidyl]methyl]piperazin-1-yl]methyl]-1-piperidyl]isoindoline-1,3-dione], the DC50 (on G2019S LRRK2 (setting [2]); at wildtype LRRK2 (setting [3]); in experiment [1] (setting [4])) was less than 10 nM each time. In addition, the Dmax (at G2019S LRRK2 (setting [2]); at wildtype LRRK2 (setting [3]); in experiment [1] (setting [4])) was not below 70% each time.
With `CC1(Oc2ccc3n[nH]c(-c4cc(N5CCC(CN6CCN(CC7CCN(c8ccc9c(c8)CN(C8CCC(=O)NC8=O)C9=O)CC7)CC6)CC5)ncn4)c3c2)CC1` (stereo not drawn) [Compound 112, 3-[5-[4-[[4-[[1-[6-[5-(1-methylcyclopropoxy)-2H-indazol-3-yl]pyrimidin-4-yl]-4-piperidyl]methyl]piperazin-1-yl]methyl]-1-piperidyl]-1-oxo-isoindolin-2-yl]piperidine-2,6-dione], the DC50 (at G2019S LRRK2 (setting [2]); at wildtype LRRK2 (setting [3]); in experiment [1] (setting [4])) was less than 10 nM throughout. The Dmax (on G2019S LRRK2 (setting [2]); on wildtype LRRK2 (setting [3]); in experiment [1] (setting [4])) was not below 70% in each case.
`CC1(Oc2ccc3[nH]nc(-c4ccnc(N5CC(CC6CCN(CC7CCN(c8ccc9c(c8)C(=O)N(C8CCC(=O)NC8=O)C9=O)CC7)CC6)C5)c4)c3c2)CC1` (stereo not drawn) [Compound 160, 2-(2,6-dioxo-3-piperidyl)-5-[4-[[4-[[1-[4-[5-(1-methylcyclopropoxy)-1H-indazol-3-yl]-2-pyridyl]azetidin-3-yl]methyl]-1-piperidyl]methyl]-1-piperidyl]isoindoline-1,3-dione]: the DC50 (at G2019S LRRK2 (setting [5]); on wildtype LRRK2 (setting [6]); in experiment [1] (setting [7])) was less than 10 nM in each case. For the same molecule, the figures for the Dmax (on G2019S LRRK2 (setting [5]); at wildtype LRRK2 (setting [6]); in experiment [1] (setting [7])) were 50 to 70%, 50 to 70% and not below 70%, respectively.
For `CC1(Oc2ccc3n[nH]c(-c4cc(N5CCC(COC6CCN(CC7CCN(c8ccc9c(c8)C(=O)N(C8CCC(=O)NC8=O)C9=O)CC7)CC6)CC5)ncn4)c3c2)CC1` (stereo not drawn) [Compound 61, 2-(2,6-dioxo-3-piperidyl)-5-[4-[[4-[[1-[6-[5-(1-methylcyclopropoxy)-2H-indazol-3-yl]pyrimidin-4-yl]-4-piperidyl]methoxy]-1-piperidyl]methyl]-1-piperidyl]isoindoline-1,3-dione], the DC50 (at G2019S LRRK2 (setting [2]); at wildtype LRRK2 (setting [3]); in experiment [1] (setting [4])) was less than 10 nM each time. In addition, the Dmax (on G2019S LRRK2 (setting [2]); at wildtype LRRK2 (setting [3]); in experiment [1] (setting [4])) was not below 70% in each case.
